Test results: patent US20260251642A1, “MOLECULAR TENSION SENSOR WITH NUCLEIC ACIDS AND HUH-TAGS” (REGENTS OF THE UNIVERSITY OF MINNESOTA, priority 2022, published 2026)
“And” between values parts separate entries of the source, which are not always exact repeats. Equal entries are not always repeated.

Tests used:
CHO-K1 cells = test: RAD-TGT rupture and delivery, flow cytometry readout, CHO-K1 cells; assay type: cell-based; conditions: versus DMSO
Procedure: (§1) RAD-TGT Synthesis: TGTs were designed using previously characterized DNA sequences with a 5′ extension to allow for HUH binding. The following oligonucleotides were purchased from Integrated DNA Technologies. To prepare TGTs, anchor and ligand strands were mixed in a 1.1:1 ratio and then annealed in a 1× annealing buffer by heating at 98° C. for five minutes followed by cooling at room temperature for 1 hour. Excess bottom strand was used to mitigate any single stranded fluorescent top strand which may be internalized resulting in false positives. RAD-TGTs were then generated by reacting HUH-ligand of interest with the annealed duplex in a 2:1 ratio. […]
(§2) RAD-TGT Experimental Setup: Cells of interest were trypsinized for five minutes and transferred to Opti-MEM Reduced Serum Media. Cells were then counted using an automated cell counter. […] Cells were removed from wells and analyzed with a BD ACCURI C6 Plus Personal Flow Cytometer without further washing.
(§3) Statistical Analysis: In general, each experiment was performed on at least three separate days with 1-3 separated wells per day. […] The fluorescence data were concatenated to produce the dot plots. The medians of the normalized data for each biological replicate were used to overlay on the dot plot, and statistical significance was calculated using unpaired ANOVA as previously described.

U251 cells = test: RAD-TGT rupture and delivery, flow cytometry readout, U251 cells; assay type: cell-based, human; conditions: versus DMSO
Procedure: as §1, §2, §3

U251 and CHO-K1 cells = test: Soluble RAD-TGT (echistatin) titration on U251 and CHO-K1 cells; assay type: cell-based
Procedure: FIG. 15. Soluble RAD-TGT titration highlights differences in integrin composition between cell lines. Soluble RAD-TGTs composed of the echistatin conjugated to fluorescently labeled ligand strand annealed to the non-anchor strand was added into the wells at varying concentrations ranging from […]. The total picomolar (pmol) range of oligo was from […]. Thus, the standard RAD-TGT experiment in the main text contained […] oligo assuming all oligo properly adhered, thus this is representative of experimental conditions. From this it was concluded that U251 cells internalize the soluble RAD-TGT at a greater rate than the CHO-K1 cells, […]

integrin receptors = conditions: cited from earlier work
integrins on U251 cells [1] = target: integrins on U251 cells
integrins on U251 cells [2] = test: cell-based or functional assay

Molecule: Cc1ccc2c(c1)C(=O)[C@]1(O)CCN(c3ccc(N)cc3)C1=N2 [Para-amino-blebbistatin, reference compound]
- decrease in fluorescence upon treatment (CHO-K1 cells; CHO-K1 on WDV-Echi RAD-TGTs, 50 μM, 30 minutes pre-incubation): ~ 30%
- effect on median fluorescence, FN ligand (CHO-K1 cells; CHO-K1 on WDV-FN CY5-labeled RAD-TGTs): reduces median fluorescence
- decrease in fluorescence upon treatment (U251 cells; U251 on WDV-Echi RAD-TGTs, 50 μM, 30 minutes pre-incubation): ~ 30%
- effect on median fluorescence, FN ligand (U251 cells; U251 on WDV-FN CY5-labeled RAD-TGTs): reduces median fluorescence

Molecule: Echistatin
- difference in bound echistatin between U251 and CHO-K1 cells (U251 and CHO-K1 cells): three-to-four-fold
- affinity for a broad range of integrin receptors (integrin receptors): sub-nanomolar

Molecule: WDV-echistatin integrin ligand (echistatin recombinantly expressed as a fusion protein with the HUH- (from UniProt P17347 131-179)
- fold difference in bound echistatin, U251 against CHO-K1 cells (integrins on U251 cells [1]): 3 fold and 4 fold
- increase in median fluorescence, 12 pN RAD-TGT, U251 cells, flow cytometry (integrins on U251 cells [2]): 12 fold
- increase in median fluorescence, 54 pN RAD-TGT, U251 cells, flow cytometry (integrins on U251 cells [2]): 7 fold
